Laboratory results: PMC3922157 (Journal of Antimicrobial Chemotherapy, 2013)
Read-outs that look alike come from different tables or passages of the source.

Columns and labels:
[1] = tested on: N=C(N)c1ccc(OCCCCCOc2ccc(C(=N)N)cc2)cc1; assay: cells, lysate or membranes; details: pH 7.3
TbAQP2 [2] = biological target: T1, TbAQP2 (Trypanosoma brucei brucei, UniProt Q6ZXT3)
[3] = tested on: bloodstream-form T. b. brucei; assay: Alamar blue drug susceptibility assay, bloodstream-form trypanosomes; format: cell-based; details: for EC50: Trypanosoma brucei; for Increase in susceptibility on expression of TbAT1: TbAT1 expressed in B48 (Figure S6)
Experimental: (§1) Drug susceptibilities of the bloodstream-form trypanosomes[47] and L. mexicana promastigotes[48] were determined using the Alamar blue assay exactly as described previously, measuring fluorescence in 96-well plates with a FLUOstar Optima (BMG Labtech, Durham, NC, USA) at wavelengths of 544 nm for excitation and 620 nm for emission. EC50 values were calculated by non-linear regression using an equation for a sigmoidal dose–response curve with variable slope (GraphPad Prism 5.0; GraphPad Software Inc., San Diego, CA, USA).

HAPT1 [4] = biological target: T2, HAPT1 (Trypanosoma brucei brucei, UniProt Q6ZXT3); assay: cell-based; format: cell-based, T. b. brucei
T2 sequence (Q6ZXT3 whole entry): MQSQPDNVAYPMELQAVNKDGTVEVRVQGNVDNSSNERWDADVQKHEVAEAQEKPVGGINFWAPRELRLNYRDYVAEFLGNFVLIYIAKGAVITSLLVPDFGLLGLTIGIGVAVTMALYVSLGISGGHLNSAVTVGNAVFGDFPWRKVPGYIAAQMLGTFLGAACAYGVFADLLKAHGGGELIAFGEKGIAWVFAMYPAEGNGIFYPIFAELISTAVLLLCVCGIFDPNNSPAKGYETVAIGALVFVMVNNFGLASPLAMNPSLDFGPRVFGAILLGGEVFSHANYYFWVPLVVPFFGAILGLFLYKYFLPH

HAPT1 [5] = biological target: T2, HAPT1; assay: cell-based; format: cell-based, T. b. gambiense
[6] = tested on: bloodstream-form T. b. brucei; details: cited from earlier work
LAPT1 [7] = details: 1 μM [3H]pentamidine; for Km: read-out: LAPT1 Km
T. b. rhodesiense = details: cited from earlier work; note: key: highly sensitive (+++); ++: indicated on a relative scale; +: indicated on a relative scale; +/−: indicated on a relative scale; −: indicated on a relative scale; highly resistant to pentamidine or melaminophenyl arsenicals (−−−)
[8] = tested on: procyclic T. b. brucei 247MR; format: cell-based
LAPT1 [9] = assay: [3H]pentamidine low-affinity transport, bloodstream forms; format: cell-based, T. b. brucei; details: for Km: read-out: LAPT1 pentamidine Km
[10] = tested on: Leishmania mexicana promastigotes; assay: Alamar blue drug susceptibility assay, L. mexicana promastigotes expressing T. brucei aquaporins; format: cell-based; details: for Sensitization by expression of TbAQP2: L. mexicana promastigotes expressing TbAQP2 vs empty-vector control
Experimental: as §1
TbAQP2 and TbAQP3 were amplified from genomic DNA by PCR using Phusion polymerase (Thermo Scientific) and subcloned into the pNUS vector for expression in Leishmania.[49] The construct was verified by sequencing before transfection into L. mexicana promastigotes using an Amaxa Nucleofector (program U-33).

[11] = tested on: procyclic T. b. gambiense 386MR; format: cell-based
HAPT1 [12] = biological target: T2, HAPT1; assay: [3H]pentamidine high-affinity transport, bloodstream forms
LAPT1 [13] = details: 1 μM [3H]pentamidine; for Km: read-out: LAPT1 Km; remark: listed apart in the source
T. b. brucei 247MR = tested on: T. b. brucei 247MR; parameters: method as in PMID 9225768; details: cited from earlier work
T. b. brucei = details: cited from earlier work
TbAQP3 = biological target: T3, TbAQP3 (Trypanosoma brucei brucei, UniProt Q6ZXT2); format: cell-based, T. b. brucei; details: 100 nM [3H]pentamidine over 5 min; TbAQP3-transfected promastigotes
T3 construct: expressed in transfected cells; host or cells: Leishmania mexicana promastigotes, pNUS vector
T3 sequence (Q6ZXT2 whole entry): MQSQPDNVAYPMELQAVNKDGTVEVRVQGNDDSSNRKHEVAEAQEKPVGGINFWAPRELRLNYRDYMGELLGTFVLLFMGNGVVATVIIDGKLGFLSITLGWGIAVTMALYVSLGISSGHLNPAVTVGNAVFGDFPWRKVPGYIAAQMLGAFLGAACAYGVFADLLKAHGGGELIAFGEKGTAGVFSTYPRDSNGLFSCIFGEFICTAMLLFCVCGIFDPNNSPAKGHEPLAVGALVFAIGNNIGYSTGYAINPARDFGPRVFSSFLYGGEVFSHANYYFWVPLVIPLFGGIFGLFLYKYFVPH

LAPT1 [14] = details: cited from earlier work
T. b. gambiense = details: cited from earlier work
HAPT1 [15] = biological target: T2, HAPT1; parameters: endogenous in cells; host or cells: bloodstream-form T. b. brucei Lister 427 derivatives (s427 WT, TbAT1-KO, 2T1: endogenous AQP2; B48/AQP2: wild-type TbAQP2 from vector pHDK21, derived from pHD1336); details: cited from earlier work
TbAQP2 [16] = biological target: T1, TbAQP2; assay: cell-based
[17] = B48 + TbAQP2 vs B48 empty vector (Figure 1)
[18] = P1000 + TbAQP2 vs P1000 empty vector (Figure 1)
Throughout, for susceptibility: key: highly sensitive (+++); ++: indicated on a relative scale; +: indicated on a relative scale; +/−: indicated on a relative scale; −: indicated on a relative scale; highly resistant to pentamidine or melaminophenyl arsenicals (−−−).

T1 sequence (Q6ZXT3 whole entry): as the sequence (Q6ZXT3 whole entry) above

Compound: HAPT1 (Trypanosoma brucei brucei)
- Km ([1]; other: B48/AQP2 bloodstream forms): 0.046 ± 0.014 µM

Compound: N=C(N)c1ccc(OCCCCCOc2ccc(C(=N)N)cc2)cc1 [pentamidine]
- Rate of [3H]pentamidine uptake (TbAQP2 [2]; 50 nM [3H]pentamidine in the presence of 1 mM unlabelled pentamidine): 0.00026 ± 1.8 × 10^−6 pmol/10^7 cells/s
- Rate of [3H]pentamidine uptake (TbAQP2 [2]; 50 nM [3H]pentamidine, over 15 s): 0.032 ± 0.002 pmol/10^7 cells/s
- Increase of [3H]pentamidine uptake (TbAQP2 [2]; 100 nM [3H]pentamidine over 5 min, TbAQP2-expressing promastigotes vs control): ~15 fold
- Reversal of resistance on expression of TbAQP2 [3, 17]: 50 fold
- Reversal of resistance on expression of TbAQP2 [3, 18]: 240 fold
- EC50 [3]: 0.158 ± 0.002 µM
- EC50 ([3]; aqp2/aqp3 null expressing AQP3^sf2, P < 0.02): 0.131 ± 0.003 µM
- HAPT1 Vmax (HAPT1 [4]; STIB 247WT procyclics, 25 nM [3H]pentamidine): 0.008 ± 0.002 pmol/10^7 cells/s
- HAPT1 Vmax (HAPT1 [5]; STIB 386WT procyclics, 25 nM [3H]pentamidine): 0.007 ± 0.002 pmol/10^7 cells/s
- Loss of sensitivity on homozygous deletion of TbAT1 [6]: 2.5–3 fold
- LAPT1 Vmax (LAPT1 [7]; STIB 386MR procyclics): 1.2 ± 0.4 pmol/10^7 cells/s
- LAPT1 Vmax (LAPT1 [7]; STIB 386WT procyclics): 0.70 ± 0.15 pmol/10^7 cells/s
- Km (LAPT1 [7]; STIB 386MR procyclics): 51 ± 2 µM
- Km (LAPT1 [7]; STIB 386WT procyclics): 46 ± 9 µM
- Susceptibility (T. b. rhodesiense): +++ and −
- Resistance relative to parental line [8]: 74 fold
- Increase of [3H]pentamidine uptake on expression of TbAQP2 (LAPT1 [9]; 1 μM pentamidine, B48 + TbAQP2 vs B48): 2.5 fold
- Uptake of [3H]pentamidine compared with control (LAPT1 [9]; 1 μM pentamidine, B48 compared with TbAT1-KO): not significantly different
- IC50 (LAPT1 [9]; read-out: IC50, inhibition of [3H]pentamidine uptake, low-affinity phase, 2T1 control cells, 30 nM [3H]pentamidine, 1 mM adenosine, n = 3): 29.9 ± 4.3 µM
- IC50 (LAPT1 [9]; read-out: IC50, inhibition of [3H]pentamidine uptake, aqp2 null cells, 30 nM [3H]pentamidine, 1 mM adenosine): 33.4 ± 9.5 µM
- Km (LAPT1 [9]; B48/AQP2 bloodstream forms): 66 ± 1 µM
- Km (LAPT1 [9]; P1000 bloodstream forms): 99 ± 24 µM
- Sensitization by expression of TbAQP2 [10]: 40 fold
- Sensitization by expression of TbAQP3 ([10]; L. mexicana promastigotes expressing TbAQP3, two independent clones): 1.5–2.5 fold
- Resistance relative to parental line [11]: 90 fold
- IC50 (HAPT1 [12]): 0.06 ± 0.017 µM
- Reduction of [3H]pentamidine uptake (HAPT1 [12]; 50 nM [3H]pentamidine, B48 compared with TbAT1-KO control): 15.5 fold
- Increase of [3H]pentamidine uptake on expression of TbAQP2 (HAPT1 [12]; 50 nM pentamidine, B48 + TbAQP2 vs B48): 27.7 fold
- LAPT1 Vmax (LAPT1 [13]; STIB 247MR procyclics): 0.41 ± 0.10 pmol/10^7 cells/s
- LAPT1 Vmax (LAPT1 [13]; STIB 247WT procyclics): 0.65 ± 0.17 pmol/10^7 cells/s
- Km (LAPT1 [13]; STIB 247MR procyclics): 56 ± 19 µM
- Km (LAPT1 [13]; STIB 247WT procyclics): 49 ± 19 µM
- Pentamidine resistance in vivo relative to parental line (T. b. brucei 247MR): > 50 fold
- Susceptibility (T. b. brucei): +++ and +/− and ++ and −
- Uptake of [3H]pentamidine compared with control (TbAQP3): not significantly different
- Km (LAPT1 [14]; read-out: LAPT1 pentamidine Km, B48 bloodstream forms, ref Bridges et al. 16): 56 ± 7 µM
- Km (LAPT1 [14]; read-out: LAPT1 pentamidine Km, TbAT1-KO bloodstream forms, ref Matovu et al. 14): 50 ± 17 µM
- Km (LAPT1 [14]; read-out: LAPT1 pentamidine Km, WT s427 bloodstream forms, ref De Koning 17): 56 ± 8 µM
- Km (LAPT1 [14]; read-out: published pentamidine Km for LAPT1): 56.2 ± 8.3 µM
- Susceptibility (T. b. gambiense): +++ and +/−

Compound: C[C@H]1O[C@@H](n2cnc3c(N)ncnc32)[C@H](O)[C@@H]1O [5′-deoxyadenosine]
- Increase in susceptibility on expression of TbAT1 ([3]; P < 0.001): > 20 fold

Compound: Nc1ncnc2c1ncn2[C@@H]1O[C@H](CO)C[C@H]1O [cordycepin, 3′-deoxyadenosine]
- Increase in susceptibility on expression of TbAT1 ([3]; P < 0.001): > 20 fold

Compound: Cl.Cl.NCCS[As](SCCN)c1ccc(Nc2nc(N)nc(N)n2)cc1 [Cymelarsan]
- Reversal of resistance on expression of TbAQP2 [3, 17]: 16.7 fold
- Reversal of resistance on expression of TbAQP2 [3, 18]: 15.0 fold
- Difference in susceptibility ([3]; aqp2 null vs aqp2 null expressing WT AQP2, P < 0.001): 4.1 fold
- Difference in susceptibility ([3]; aqp2 null vs aqp2 null expressing chAQP2/3, P < 0.05): 1.4 fold
- Resistance relative to parental line [8]: 755 fold
- Resistance relative to parental line [11]: 83 fold

Compound: N=C(N)c1ccc(OCCCOc2ccc(C(=N)N)cc2)cc1 [propamidine]
- Ki (HAPT1 [4]): 14 ± 2 µM
- Ki (HAPT1 [5]): 22 ± 6 µM
- IC50, inhibition of [3H]pentamidine uptake (LAPT1 [9]; aqp2 null cells, 30 nM [3H]pentamidine, 1 mM adenosine): insensitive
- Ki (HAPT1 [15]; TbAT1-KO bloodstream forms, ref Matovu et al. 14): 13 ± 3 µM
- Ki (HAPT1 [15]; WT s427 bloodstream forms, ref De Koning 17): 4.6 ± 0.7 µM
- Ki (TbAQP2 [16]): 8.1 ± 0.8 µM
- Ki (HAPT1 [12]): 15.2 ± 1.6 µM

Compound: N=C(N)c1ccc(/N=N/Nc2ccc(C(=N)N)cc2)cc1 [diminazene]
- Reversal of resistance on expression of TbAQP2 [3, 17]: not affected
- Reversal of resistance on expression of TbAQP2 [3, 18]: not affected
- Sensitization by expression of TbAQP2 [10]: no statistically significant effect
- Ki (TbAQP2 [16]): 100 ± 21 µM

Compound: C[C@@H]1[C@H](O)[C@@H](C)/C=C/C=C/C=C/C=C/C=C/C=C/C=C/[C@H](O[C@@H]2O[C@H](C)[C@@H](O)[C@H](N)[C@@H]2O)C[C@@H]2O[C@](O)(C[C@@H](O)C[C@@H](O)[C@H](O)CC[C@@H](O)C[C@@H](O)CC(=O)O[C@H]1C)C[C@H](O)[C@H]2C(=O)O [amphotericin B]
- Sensitization by expression of TbAQP2 [10]: no statistically significant effect

Compound: TbAQP2 (Trypanosoma brucei brucei)
- Km ([1]; other: L. mexicana/TbAQP2 promastigotes): 0.055 ± 0.004 µM

Compound: Nc1ncnc2c1ccn2[C@@H]1O[C@H](CO)[C@@H](O)[C@H]1O [tubercidin, 7-deazaadenosine]
- Increase in susceptibility on expression of TbAT1 ([3]; P < 0.001): > 20 fold
- EC50 ([3]; s427 WT, read-out: EC50): 0.23 ± 0.03 µM
- EC50 ([3]; tbat1−/− strain, read-out: EC50): 2.65 ± 0.23 µM
- Decrease in susceptibility ([3]; tbat1−/− strain relative to s427 WT): 10 fold
